Reference: PubChem BioAssay (NCI)
Several values for one entry are separate records, joined by “and”; a condition that tells them apart may be missing. Identical values can stand only once.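 A five-concentration, 48-hour dose response in 96-well plates underlies each endpoint, interpolated linearly between surrounding concentrations. The concentration for 50% growth inhibition is given as GI50. TGI: concentration producing complete growth inhibition.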

System: MDA-N
Test: NCI tumour cell line growth inhibition, 48 h

Compared with OC(c1cc(-c2ccc(C(F)(F)F)cc2)nc(C(F)(F)F)c1)C1CCCCN1 (centres undefined), COc1ccc(C(CC(=O)c2ccc3c(c2)OCO3)c2c(O)c3ccccc3oc2=O)cc1OC (centres undefined) is higher in TGI: 3.04 µM for the first, over 100 µM for the second.

Cn1c(=O)c2c(nc(C(=N)SCC(=O)O)n2C)n(C)c1=O and CCCC(=O)C1=C(O)C(Cc2c(O)c(C)c(O)c(C(=O)CCC)c2O)=C(O)C(C)(C)C1=O cannot be ordered by TGI: over 100 µM for the first, over 50 µM for the second.

First: CC1CC(O)C(=O)C(O[C@@H]2C[C@@H]3CC[C@@H]4[C@H](CC[C@]5(C)C(C6=CC(=O)OC6)CC[C@]45O)[C@@]3(C=O)C[C@H]2O)O1 (some centres undefined)
Second: CCC/C=C/C=C/C1CC(O)C(O)C(=O)C1CO (centres undefined)
The TGI of the first is lower: 0.199 µM for the first, over 100 µM for the second.

In the case of CC(C)CC(C/C=C1/CC(CO)(COC(=O)C(C)(C)C)OC1=O)CC(C)C (centres undefined), the GI50 was 0.2 µM and 0.849 µM.

CC(C)CC(C/C=C1/CC(CO)(COC(=O)C(C)(C)C)OC1=O)CC(C)C (centres undefined) was tested, and the TGI was 6.28 µM and 17.6 µM.
CN(C)C(=S)SSC(=S)N(C)C was tested, and the TGI was 30.3 µM and 50.9 µM.

System: XF 498 CNS
Test: NCI tumour cell line growth inhibition, 48 h

First: CCC1CN2CCc3cc(OC)c(OC)cc3C2CC1CC1c2cc(OC)c(OC)cc2CCN1C(=O)C1CCCN1 (centres undefined)
Second: CCNC(=O)/C(=C/c1ccc(OC)cc1)c1cc(OC)c(OC)c(OC)c1
The TGI of the first is 2.2-fold lower: 39.2 µM for the first, 85.3 µM for the second.

CC(C(=O)c1ccc(Cl)cc1)/C(=N/NC(=O)NN)C(=O)Nc1cccc(C(F)(F)F)c1 (centres undefined) and NC(=O)C(=O)CC(=O)c1ccccc1NC1=CC(=O)C(=O)c2ccccc21 cannot be ordered by TGI: over 100 µM for the first, over 100 µM for the second.

Going from COc1cccc(/C=N/[N-]C(=O)c2ccncc2)c1[O-].COc1cccc(/C=N/[N-]C(=O)c2ccncc2)c1[O-].[O]=[U](=[O])([OH2+])[OH2+] to N#CC(=Nc1ccccc1N(C(=O)c1ccccc1)C(=O)c1ccccc1)c1ccccc1, the TGI rises from 37.6 µM to over 100 µM.

COc1c(C)n(CCO)ccc1=O and CC1=C(C#N)C(=O)CC(c2ccc(Cl)cc2)N(C)N1 (centres undefined) cannot be ordered by TGI: over 100 µM for the first, over 100 µM for the second.

COC(=O)C(=O)C(C(C)=O)C(=O)NCc1ccc(OC)c(OC)c1 (centres undefined) and COC(=O)/C(=N/O)C(C(=O)C=C(C)C)C(=O)C(=O)Nc1nc2ccc([N+](=O)[O-])cc2s1 (centres undefined) cannot be ordered by TGI: over 100 µM for the first, over 100 µM for the second.

Cc1cccc(C2=C/C(=C(\SS/C(C(=O)c3ccc(OCC(=O)O)c(Cl)c3Cl)=C3\C=C(c4cccc(C)c4)SS3)C(=O)c3ccc(OCC(=O)O)c(Cl)c3Cl)SS2)c1 and O=C(Cc1nc2c3c(ccc2[nH]c1=O)C(=O)c1ccccc1C3=O)C(=O)Nc1ccccc1[N+](=O)[O-] are within 1.5-fold of each other in TGI: 54.6 µM for the first, 43.1 µM for the second.

First: Nc1nc(-c2ccc(Cl)c([N+](=O)[O-])c2)cs1
Second: Cc1ccccc1C1=[N+]([O-])c2ccc(Cl)cc2C1=O
The TGI of the first is 6.1-fold higher: 86.6 µM for the first, 14.3 µM for the second.

CN(C)C(=S)SSC(=S)N(C)C and CCOC(=O)NC(=O)c1cn(C2CCCCC2)c(=O)[nH]c1=O cannot be ordered by TGI: over 88.3 µM for the first, over 100 µM for the second.

Cc1[nH]c2ccccc2c1C1Cc2ccccc2N1C(=O)C#Cc1ccc([N+](=O)[O-])cc1 (centres undefined) and Cn1c(=O)nc2n(-c3cc(C(F)(F)F)cc(C(F)(F)F)c3)c3ccccc3nc-2c1=O cannot be ordered by TGI: over 100 µM for the first, over 100 µM for the second.

With COc1cccc(/C=N/[N-]C(=O)c2ccncc2)c1[O-].COc1cccc(/C=N/[N-]C(=O)c2ccncc2)c1[O-].[O]=[U](=[O])([OH2+])[OH2+] the GI50 was 4.75 µM.

System: KM20L2 colon
Test: NCI tumour cell line growth inhibition, 48 h

Nc1ccccc1C(=O)/C=C/c1c(O)ccc2ccccc12 and NC(=O)C(=O)CC(=O)c1ccccc1NC1=CC(=O)C(=O)c2ccccc21 cannot be ordered by TGI: over 100 µM for the first, over 100 µM for the second.

CC(C(=O)c1ccc(Cl)cc1)/C(=N/NC(=O)NN)C(=O)Nc1cccc(C(F)(F)F)c1 (centres undefined) and O=C(CC(=O)C1CCOC1=O)C(=O)Nc1cccc(Cl)c1 (centres undefined) cannot be ordered by TGI: over 100 µM for the first, over 100 µM for the second.

CCOP(=O)(OCC)C(C(=O)OC)C(=O)C(=O)Nc1ccc(Cl)cc1Cl (centres undefined) and COC(=O)C(=O)C(C(C)=O)C(=O)NCc1ccc(OC)c(OC)c1 (centres undefined) cannot be ordered by TGI: over 100 µM for the first, over 100 µM for the second.

First: CC(C)=C1CCC(CN(C)C)C1=O (centres undefined)
Second: CN(C)C(=S)SSC(=S)N(C)C
The TGI of the first is lower: 27.7 µM for the first, over 100 µM for the second.

COc1cccc(/C=N/[N-]C(=O)c2ccncc2)c1[O-].COc1cccc(/C=N/[N-]C(=O)c2ccncc2)c1[O-].[O]=[U](=[O])([OH2+])[OH2+] and O=C(N/C(=C\c1ccc([N+](=O)[O-])cc1)c1nc2ccccc2[nH]1)c1ccccc1 cannot be ordered by TGI: over 100 µM for the first, over 100 µM for the second.

Going from ClC(Cl)=C1C(=C(Cl)Cl)C(Cl)(Cl)C1(Cl)Cl to COc1c(C)n(CCO)ccc1=O, the TGI rises from 11.3 µM to over 100 µM.

Going from CO[C@H]1Nc2c(ccc(C)c2O)C(=O)N2C=C(/C=C/C(N)=O)C[C@@H]12 to Cc1cc2c(c(C(N)=O)c1C)-c1ccccc1C2=O, the TGI rises from 0.891 µM to over 100 µM.

First: CCNC(=O)/C(=C/c1ccc(OC)cc1)c1cc(OC)c(OC)c(OC)c1
Second: COc1cc(/C=C2\[C@H]3c4c(c(OC)c(C)c(OC)c4OC)CC(C(=O)N2Cc2ccccc2)N3C)c(OC)c(C)c1OC
The TGI of the first is 2.8-fold lower: 13.5 µM for the first, 37.2 µM for the second.

N#CC(=Nc1ccccc1N(C(=O)c1ccccc1)C(=O)c1ccccc1)c1ccccc1 and Cc1[nH]c2ccccc2c1C1Cc2ccccc2N1C(=O)C#Cc1ccc([N+](=O)[O-])cc1 (centres undefined) cannot be ordered by TGI: over 100 µM for the first, over 100 µM for the second.

Compared with Nc1c(-c2ccccc2-c2c(N)[n+]([O-])c3ccccc3[n+]2[O-])[n+]([O-])c2ccccc2[n+]1[O-], O=C(Cc1nc2c3c(ccc2[nH]c1=O)C(=O)c1ccccc1C3=O)C(=O)Nc1ccccc1[N+](=O)[O-] is lower in TGI: over 100 µM for the first, 39.6 µM for the second.

CCOC(=O)NC(=O)c1cn(C(CC)COC(=O)NCCCCCCNC(=O)OCC(CC)n2cc(C(=O)NC(=O)OCC)c(=O)[nH]c2=O)c(=O)[nH]c1=O (centres undefined) and CCOC(=O)NC(=O)c1cn(C2CCCCC2)c(=O)[nH]c1=O cannot be ordered by TGI: over 100 µM for the first, over 100 µM for the second.

Cc1cccc(C2=C/C(=C(\SS/C(C(=O)c3ccc(OCC(=O)O)c(Cl)c3Cl)=C3\C=C(c4cccc(C)c4)SS3)C(=O)c3ccc(OCC(=O)O)c(Cl)c3Cl)SS2)c1 and CC(=O)N1CCN(c2ccc(OCC3COC(Cn4ccnc4)(c4ccc(Cl)cc4Cl)O3)cc2)CC1 (centres undefined) cannot be ordered by TGI: over 100 µM for the first, over 100 µM for the second.

Compared with Nc1nc(-c2ccc(Cl)c([N+](=O)[O-])c2)cs1, Cc1ccccc1C1=[N+]([O-])c2ccc(Cl)cc2C1=O is lower in TGI: over 100 µM for the first, 16.9 µM for the second.

COC(=O)/C([Se]c1c(C)cc(C)cc1C)=C(/[Se]c1c(C)cc(C)cc1C)C(=O)OC and COC(=O)/C(=N/O)C(C(=O)C=C(C)C)C(=O)C(=O)Nc1nc2ccc([N+](=O)[O-])cc2s1 (centres undefined) cannot be ordered by TGI: over 100 µM for the first, over 100 µM for the second.

For Cn1c(=O)nc2n(-c3cc(C(F)(F)F)cc(C(F)(F)F)c3)c3ccccc3nc-2c1=O, the TGI was over 100 µM.

COc1cccc(/C=N/[N-]C(=O)c2ccncc2)c1[O-].COc1cccc(/C=N/[N-]C(=O)c2ccncc2)c1[O-].[O]=[U](=[O])([OH2+])[OH2+] gave a GI50 of 3.14 µM.

System: SNB-78 CNS
Test: NCI tumour cell line growth inhibition, 48 h

For Nc1ccccc1C(=O)/C=C/c1c(O)ccc2ccccc12, the TGI was over 100 µM.
